These results are taken from article PMC5341070, “Small molecule inhibitors block Gas6-inducible TAM activation and tumorigenicity” (Scientific Reports, 2017).

Assay [1] has as its target AXL (Homo sapiens, UniProt P30530). In words: biochemical. Conditions: binding competition, % of control; read-out: RU-301 %Ctrl @ 10000nM. Set-up: KINOMEscan (DiscoverX) competition binding screen of 97 human kinases, percent of control at 10 uM. On the procedure:
(§1) The KINOMEscan profiling of the inhibitors were performed as per directions by the manufacturer (DiscoverX) against a panel of human protein kinases.
Target sequence in this assay (P30530 whole entry, the tested form may be a part): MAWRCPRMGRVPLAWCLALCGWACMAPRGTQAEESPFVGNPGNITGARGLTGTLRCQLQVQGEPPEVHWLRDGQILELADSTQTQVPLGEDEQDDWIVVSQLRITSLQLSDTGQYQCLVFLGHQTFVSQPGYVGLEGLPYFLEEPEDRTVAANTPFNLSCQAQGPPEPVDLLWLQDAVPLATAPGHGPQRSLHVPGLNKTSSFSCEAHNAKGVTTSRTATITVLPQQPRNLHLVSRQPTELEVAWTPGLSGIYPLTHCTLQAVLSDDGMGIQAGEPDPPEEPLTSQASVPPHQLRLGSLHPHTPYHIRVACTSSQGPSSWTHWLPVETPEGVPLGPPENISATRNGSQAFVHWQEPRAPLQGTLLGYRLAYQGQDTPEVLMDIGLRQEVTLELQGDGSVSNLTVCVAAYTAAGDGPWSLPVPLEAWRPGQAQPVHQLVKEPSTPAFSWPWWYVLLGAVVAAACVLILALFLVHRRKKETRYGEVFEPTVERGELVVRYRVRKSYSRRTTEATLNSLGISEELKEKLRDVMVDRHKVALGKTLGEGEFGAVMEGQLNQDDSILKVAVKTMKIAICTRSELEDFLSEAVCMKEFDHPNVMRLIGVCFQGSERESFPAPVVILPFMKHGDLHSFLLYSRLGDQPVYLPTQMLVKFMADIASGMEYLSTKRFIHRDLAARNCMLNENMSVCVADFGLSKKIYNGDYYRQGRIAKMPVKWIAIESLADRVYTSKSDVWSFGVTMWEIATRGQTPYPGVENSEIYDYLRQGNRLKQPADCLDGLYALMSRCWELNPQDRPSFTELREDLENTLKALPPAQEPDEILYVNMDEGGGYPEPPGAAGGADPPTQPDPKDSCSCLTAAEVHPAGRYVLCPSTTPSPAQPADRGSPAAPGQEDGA

Assay [2] has as its target T1, KIT (Homo sapiens, UniProt P10721). In words: biochemical. Set-up: KINOMEscan (DiscoverX) competition binding screen of 97 human kinases, percent of control at 10 uM. Conditions: binding competition, % of control; read-out: RU-301 %Ctrl @ 10000nM. On the procedure: as §1
In assay [3] the target is FLT3 (Homo sapiens, UniProt P36888). In words: biochemical. Conditions: binding competition, % of control; read-out: RU-301 %Ctrl @ 10000nM. Set-up: KINOMEscan (DiscoverX) competition binding screen of 97 human kinases, percent of control at 10 uM. Here is the method:
as §1
Target sequence in this assay (P36888 whole entry, the tested form may be a part): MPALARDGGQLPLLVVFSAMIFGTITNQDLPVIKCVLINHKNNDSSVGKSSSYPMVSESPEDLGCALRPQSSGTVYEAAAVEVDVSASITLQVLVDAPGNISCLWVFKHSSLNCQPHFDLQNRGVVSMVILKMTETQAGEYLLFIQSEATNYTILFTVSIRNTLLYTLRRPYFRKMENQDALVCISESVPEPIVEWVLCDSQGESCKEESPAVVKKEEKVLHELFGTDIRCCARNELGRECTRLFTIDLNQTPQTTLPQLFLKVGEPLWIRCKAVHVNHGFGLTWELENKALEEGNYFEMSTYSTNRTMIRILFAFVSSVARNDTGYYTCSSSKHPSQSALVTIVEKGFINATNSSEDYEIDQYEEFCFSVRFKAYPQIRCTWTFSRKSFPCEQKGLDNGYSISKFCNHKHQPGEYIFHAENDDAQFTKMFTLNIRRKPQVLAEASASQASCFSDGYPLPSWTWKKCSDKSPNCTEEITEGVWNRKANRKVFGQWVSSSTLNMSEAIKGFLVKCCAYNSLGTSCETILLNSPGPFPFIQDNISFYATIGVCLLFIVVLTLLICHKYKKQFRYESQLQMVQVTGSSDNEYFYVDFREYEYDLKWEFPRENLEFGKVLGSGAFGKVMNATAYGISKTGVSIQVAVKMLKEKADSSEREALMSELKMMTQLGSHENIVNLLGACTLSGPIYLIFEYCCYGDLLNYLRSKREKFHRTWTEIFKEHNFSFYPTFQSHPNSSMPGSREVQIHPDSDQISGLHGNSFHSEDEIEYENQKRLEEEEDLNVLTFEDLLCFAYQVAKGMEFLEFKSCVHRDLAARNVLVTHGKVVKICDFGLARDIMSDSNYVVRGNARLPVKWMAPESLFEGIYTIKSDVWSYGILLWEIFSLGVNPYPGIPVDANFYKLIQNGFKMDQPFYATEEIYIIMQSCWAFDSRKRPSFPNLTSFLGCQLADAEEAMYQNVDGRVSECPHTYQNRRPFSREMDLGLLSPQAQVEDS

A further assay deals with T2, ABL1-phosphorylated (Homo sapiens, UniProt P00519).
T2 construct: phosphorylated
T2 sequence (P00519 whole entry): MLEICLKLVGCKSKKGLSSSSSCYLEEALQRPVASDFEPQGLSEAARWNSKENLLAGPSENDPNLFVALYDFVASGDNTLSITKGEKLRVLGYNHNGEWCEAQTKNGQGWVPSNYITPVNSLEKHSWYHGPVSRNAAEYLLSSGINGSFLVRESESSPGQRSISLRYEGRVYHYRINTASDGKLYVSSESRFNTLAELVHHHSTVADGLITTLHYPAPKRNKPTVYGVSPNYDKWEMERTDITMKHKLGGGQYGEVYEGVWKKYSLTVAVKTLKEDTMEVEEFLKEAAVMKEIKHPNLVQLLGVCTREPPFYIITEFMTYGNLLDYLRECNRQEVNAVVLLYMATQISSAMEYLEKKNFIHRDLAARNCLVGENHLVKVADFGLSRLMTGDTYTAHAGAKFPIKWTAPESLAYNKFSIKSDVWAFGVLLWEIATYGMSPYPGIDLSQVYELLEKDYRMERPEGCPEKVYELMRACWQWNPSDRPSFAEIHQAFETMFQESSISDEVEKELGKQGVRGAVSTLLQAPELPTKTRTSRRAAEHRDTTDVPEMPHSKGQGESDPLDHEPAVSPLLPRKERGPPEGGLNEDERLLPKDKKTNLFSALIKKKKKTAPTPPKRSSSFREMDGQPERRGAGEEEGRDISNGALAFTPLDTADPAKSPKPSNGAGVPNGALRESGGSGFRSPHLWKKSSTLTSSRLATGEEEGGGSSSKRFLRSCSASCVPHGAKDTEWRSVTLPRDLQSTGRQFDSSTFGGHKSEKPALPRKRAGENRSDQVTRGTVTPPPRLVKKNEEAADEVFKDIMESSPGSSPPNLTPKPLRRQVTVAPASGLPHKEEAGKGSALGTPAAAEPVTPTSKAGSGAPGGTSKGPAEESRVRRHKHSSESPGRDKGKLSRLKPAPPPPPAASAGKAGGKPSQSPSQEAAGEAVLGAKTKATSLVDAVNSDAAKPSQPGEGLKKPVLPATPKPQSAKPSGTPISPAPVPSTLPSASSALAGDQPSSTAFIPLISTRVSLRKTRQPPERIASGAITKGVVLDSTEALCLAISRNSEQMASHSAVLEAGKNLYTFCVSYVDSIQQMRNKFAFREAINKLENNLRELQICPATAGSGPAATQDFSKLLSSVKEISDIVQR
In words: biochemical. Set-up: KINOMEscan (DiscoverX) competition binding screen of 97 human kinases, percent of control at 10 uM. Conditions: binding competition, % of control; read-out: RU-301 %Ctrl @ 10000nM. Here is the method: as §1

Assay [4] concerns the target T3, Axl (Homo sapiens, UniProt P30530+Q14393).
T3 construct: extracellular and trans-membrane domain of Axl fused to IFN-γR1 intracellular domain; with Gas6
In words: Gas6-induced hAxl/IFN-γR1 CHO reporter (pSTAT1) inhibition; sAxl-Gas6 pull-down partially inhibited. It is filed as cell-based.

For a further assay, the target named is T4, Abl (Homo sapiens, UniProt P00519).
T4 construct: gene ABL1; kinase domain
T4 sequence (P00519 242-493 limits assumed): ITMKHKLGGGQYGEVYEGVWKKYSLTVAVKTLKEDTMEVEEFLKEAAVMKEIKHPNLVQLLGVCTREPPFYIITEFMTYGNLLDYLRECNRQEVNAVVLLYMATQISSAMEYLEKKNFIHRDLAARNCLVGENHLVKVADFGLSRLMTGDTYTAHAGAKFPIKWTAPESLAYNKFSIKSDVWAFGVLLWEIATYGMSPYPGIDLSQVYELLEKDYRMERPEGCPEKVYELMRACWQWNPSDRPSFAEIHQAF
In words: KINOMEscan profiling at […]. In kind it is binding.

Assay [5] addresses T1, KIT.
Target sequence in this assay (P10721 589-937 limits assumed): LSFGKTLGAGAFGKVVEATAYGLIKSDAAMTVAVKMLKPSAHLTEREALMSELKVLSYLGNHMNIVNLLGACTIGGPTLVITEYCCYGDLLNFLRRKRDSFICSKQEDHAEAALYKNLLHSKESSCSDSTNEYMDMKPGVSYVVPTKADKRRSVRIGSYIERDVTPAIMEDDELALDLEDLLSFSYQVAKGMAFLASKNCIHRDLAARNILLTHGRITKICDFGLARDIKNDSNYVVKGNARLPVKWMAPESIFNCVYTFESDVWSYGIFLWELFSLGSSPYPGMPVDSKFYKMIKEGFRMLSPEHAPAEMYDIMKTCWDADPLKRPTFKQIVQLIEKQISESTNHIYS
Assay [6] addresses T5, FLT3 (Homo sapiens, UniProt P36888).
T5 construct: kinase domain
In words: KINOMEscan profiling at […]. In kind it is binding.

In assay [7] the target is AXL (Homo sapiens, UniProt P30530). In words: biochemical. The conditions noted are these: binding competition, % of control; binder. Set-up: KINOMEscan (DiscoverX) competition binding screen of 97 human kinases, percent of control at 10 uM. Here is the method: as §1
Target sequence in this assay (P30530 whole entry, the tested form may be a part): as the sequence (P30530 whole entry, the tested form may be a part) above
The next assay concerns the target PDGFRB (Homo sapiens, UniProt P09619). In words: KINOMEscan profiling at […]. In kind it is binding. Set-up: gene PDGFRB; kinase domain.
The next assay deals with VEGFR2 (Homo sapiens, UniProt P35968). In words: KINOMEscan profiling at […]. In kind it is binding. Set-up: gene KDR; kinase domain.
The target of another assay is T6, RET (Homo sapiens, UniProt P07949).
T6 construct: kinase domain
T6 sequence (P07949 724-1016 limits assumed): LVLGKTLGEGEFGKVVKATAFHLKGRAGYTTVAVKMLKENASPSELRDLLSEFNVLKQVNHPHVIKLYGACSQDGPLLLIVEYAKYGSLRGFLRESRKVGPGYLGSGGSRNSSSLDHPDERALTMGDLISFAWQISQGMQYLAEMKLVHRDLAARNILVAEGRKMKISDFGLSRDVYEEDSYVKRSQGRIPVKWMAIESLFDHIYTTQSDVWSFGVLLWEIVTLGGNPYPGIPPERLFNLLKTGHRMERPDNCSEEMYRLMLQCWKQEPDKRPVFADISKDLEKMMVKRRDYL
In words: KINOMEscan profiling at […]. It is filed as binding.

In a further assay the target is TIE2 (Homo sapiens, UniProt Q02763). In words: KINOMEscan profiling at […]. It is filed as binding. Set-up: gene TEK; kinase domain.
Chain of TIE2 (Q02763 770-1124 limits assumed): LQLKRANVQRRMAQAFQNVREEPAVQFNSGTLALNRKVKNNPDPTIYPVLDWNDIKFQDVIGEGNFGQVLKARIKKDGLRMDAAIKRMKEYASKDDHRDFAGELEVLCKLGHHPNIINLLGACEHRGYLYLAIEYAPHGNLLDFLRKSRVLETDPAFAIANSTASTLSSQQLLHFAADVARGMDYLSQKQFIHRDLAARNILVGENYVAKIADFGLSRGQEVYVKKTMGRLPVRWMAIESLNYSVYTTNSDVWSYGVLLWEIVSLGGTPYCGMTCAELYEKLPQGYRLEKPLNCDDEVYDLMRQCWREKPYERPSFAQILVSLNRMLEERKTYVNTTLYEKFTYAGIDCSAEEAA

Chain of PDGFRB (P09619 600-962 limits assumed): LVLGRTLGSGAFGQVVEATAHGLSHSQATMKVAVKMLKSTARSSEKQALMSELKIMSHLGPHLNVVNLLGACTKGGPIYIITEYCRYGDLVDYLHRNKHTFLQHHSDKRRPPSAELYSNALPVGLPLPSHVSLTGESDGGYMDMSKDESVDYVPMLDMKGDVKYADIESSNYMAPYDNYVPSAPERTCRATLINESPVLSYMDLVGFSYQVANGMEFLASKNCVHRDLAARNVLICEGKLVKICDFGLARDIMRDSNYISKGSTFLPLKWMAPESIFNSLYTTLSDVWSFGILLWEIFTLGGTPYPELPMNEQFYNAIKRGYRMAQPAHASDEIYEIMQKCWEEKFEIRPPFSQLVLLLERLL

With `Cc1cc(CSc2ccccc2C(=O)NCCNc2ccc(C(F)(F)F)cc2[N+](=O)[O-])on1` [RU-301], the remaining binding at 10 µM at AXL [1] was determined as 89%; on KIT [2] it was 96%; at FLT3 [3] it was 99%; at ABL1-phosphorylated it was 81%. The IC50 entry on Axl [4] is on record as “low micromolar”.
As to `Nc1nc(Nc2ccc3c(c2)CC[C@@H](N2CCCC2)CC3)nn1-c1cc2c(nn1)-c1ccccc1CCC2` [R428], the “KINOMEscan profiling at 10 uM” value is “R428 also bound to several other kinases, including Abl, Aurora kinases, KIT” on Abl; “R428 also bound to several other kinases, including Abl, Aurora kinases, KIT” on KIT [5]; “KIT, PDGFR A and B, RET, TIE2, VEGFR2, JAK2, JAK3 and FLT3 kinases” on FLT3 [6]; “R428 also bound to several other kinases, including Abl, Aurora kinases, KIT, PDGFR A and B” on PDGFRB; “KIT, PDGFR A and B, RET, TIE2, VEGFR2, JAK2, JAK3 and FLT3 kinases” at VEGFR2; “R428 also bound to several other kinases, including Abl, Aurora kinases, KIT, PDGFR A and B, RET” on RET. In addition, the “KINOMEscan profiling at 10 uM” value at TIE2 is “KIT, PDGFR A and B, RET, TIE2, VEGFR2, JAK2, JAK3 and FLT3 kinases”. For the same molecule, the “R428 %Ctrl @ 10000nM” value at AXL [7] is listed as 0.1%.
